This assay is described as follows: P. aeruginosa growth delay under iron chelation, dose response, absorbance, plate reader, cherry-picks (AID 602389). The settings on record: P. aeruginosa growth with EDDHA, OD600, 24-30 h; at 50 µM (top of the series).

Activity calls are given as the source filed them.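 Rule for the calls: active = growth down by 35% or more in duplicate, reached at no more than twice the top tested dose; inactive = growth raised instead, and the rest.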

Take `CCOC(=O)CC(C#N)c1cn(C)c2ccccc12` (stereo not given): the growth change, negative = inhibition was -0.14% (inactive). Take `COC(=O)c1ccc(OC(=O)c2cccs2)cc1`: the growth change, negative = inhibition was 6.21% (inactive). For `N#CC(c1cccc(Cl)c1)c1ncc(C(F)(F)F)cc1Cl` (stereo not given), the growth change, negative = inhibition is 1.76% (inactive). Consider `Cc1cccc(NC(=O)Nc2cc(C)on2)c1`, for which the growth change, negative = inhibition is 2.69% (inactive). As for `CCOc1ccc(-n2cccc2C=O)cc1`, the figure is 1.21% (inactive); as for `CC(C)N=C(NC#N)SCc1ccccc1F`, -1.36% (inactive); as for `COc1ccc(/C=C/C(=O)c2ccoc2)cc1`, 4.86% (inactive). As for `Cc1ccc(C(C#N)c2ccc(Cl)nn2)cc1` (stereo not given), the figure is -0.103% (inactive); as for `CCOC(=O)c1ccc(N2Cc3ccccc3C2=N)cc1`, -6.69% (inactive). As for `Cc1cccc(NC(=O)c2ccc3c(c2)OCCO3)n1`, the figure is 2.6% (inactive); as for `Cc1ccc(O)c(C(=O)/C=C/c2ccc3c(c2)OCCO3)c1`, 19.8% (inactive). Take `O=S1(=O)CCOC[C@H](c2ccccc2)N1Cc1cccc(Cl)c1`: the growth change, negative = inhibition was 7.06% (inactive).

Regarding `O=C(c1cccc([N+](=O)[O-])c1)N1CC2C3C=CC(C3)C2C1` (stereo not given), the growth change, negative = inhibition was 5.48% (inactive).

Take `CCCCCC1CC(COc2ccccc2)OC1=O` (stereo not given): the growth change, negative = inhibition is -10.5% (inactive). For `CCC(C)NS(=O)(=O)c1ccc(OC)c(Cl)c1Cl` (stereo not given), the growth change, negative = inhibition is -10.7% (inactive). With `O=C1C=C(c2cc(F)ccc2F)C[C@@H](c2ccc(F)cc2)C1`, the growth change, negative = inhibition is -1.93% (inactive).

Consider `N#CC(c1ccc(Cl)nn1)c1c(F)cccc1Cl` (stereo not given), for which the growth change, negative = inhibition is 15% (inactive).

For `CCOC(=O)c1ccc(-c2ccc(C=O)o2)cc1`, the growth change, negative = inhibition was 7.58% (inactive). For `COc1ccccc1C(C#N)c1cccc(Cl)n1` (stereo not given), the growth change, negative = inhibition is 5.02% (inactive). On to `N#CC(c1ccc(Cl)cc1)c1ncc(C(F)(F)F)cc1Cl` (stereo not given), for which the growth change, negative = inhibition was -14% (inactive).

In the case of `CO/N=C/c1cn(-c2ccc(Cl)cc2)nn1`, the growth change, negative = inhibition was -0.342% (inactive). Turning to `O=CNC1(c2ccccc2)CCCCC1`, the growth change, negative = inhibition is -5.85% (inactive). As for `CCOc1ccc(CNC2CCCc3ccccc32)cc1` (stereo not given), the growth change, negative = inhibition is 20.8% (inactive).

For `Cc1cc(C)nc(N(C#N)Cc2cccc([N+](=O)[O-])c2)n1`, the growth change, negative = inhibition is 12.9% (inactive).

As for `CCNC(=O)COc1ccc2ccccc2c1`, the growth change, negative = inhibition is 3.07% (inactive). As for `O=C(NC1CCCCCCC1)c1cccc(Cl)c1`, the growth change, negative = inhibition was -14.2% (inactive). As to `O=C1C=C(c2cccc(Cl)c2)C[C@@H](c2ccc(F)cc2)C1`, the growth change, negative = inhibition was 17.4% (inactive). Turning to `CCOC(=O)c1cc2c(s1)-c1c(C)cccc1OC2`, the growth change, negative = inhibition was 6.54% (inactive). `O=C(NC1CCCC1)c1cccc(Cl)c1`: the growth change, negative = inhibition is 7.87% (inactive). Take `Cn1cccc1C(C#N)c1cccc(F)c1C#N` (stereo not given): the growth change, negative = inhibition was 7.38% (inactive). Consider `COc1ccc(C(C#N)c2ccc(Cl)nn2)cc1` (stereo not given), for which the growth change, negative = inhibition is -3.93% (inactive).

Regarding `O=CC1=C(c2ccccc2)Oc2ccccc2O1`, the growth change, negative = inhibition was -4.48% (inactive).

`Cc1cc(NC(=O)c2c(F)c(F)c(F)c(F)c2F)no1`: the growth change, negative = inhibition is 14.5% (inactive).

Regarding `Cc1ccc(C)c(S(=O)(=O)NC2CCSC2=O)c1` (stereo not given), the growth change, negative = inhibition was -4.84% (inactive). Regarding `Cc1cc(NC(=O)c2cc([N+](=O)[O-])cc([N+](=O)[O-])c2C)no1`, the growth change, negative = inhibition is 5.73% (inactive). For `N#C/C(=C/c1ccco1)c1nc2ccccc2s1`, the growth change, negative = inhibition was 18.7% (inactive). Turning to `COc1ccc(-c2cc3ncccc3cn2)cc1`, the growth change, negative = inhibition is 7% (inactive). As for `O=[N+]([O-])c1ccc(N2CCCCC2)nc1`, the figure is -2.09% (inactive); as for `CSC1=N/C(=C\C=C\c2cccs2)C(=O)S1`, 13.6% (inactive); as for `CCOC1=CC(=O)OC(c2ccccc2)C1` (stereo not given), 3.24% (inactive).

Take `N#CC(c1ccc(Cl)nn1)c1ccccc1Cl` (stereo not given): the growth change, negative = inhibition is -4.43% (inactive). Take `N#CC(c1ccc(Cl)nn1)c1ccc(Cl)cc1Cl` (stereo not given): the growth change, negative = inhibition was -0.745% (inactive). As for `COC(=O)c1ccc(NC(=S)N2CCCC2)cc1`, the figure is 12% (inactive); as for `O=C1C2C3C=CC(C4CC34)C2C(=O)N1Cc1ccco1` (stereo not given), 43.3% (inactive); as for `N#CC1C(C#N)C2CCC1C1C2N1c1ccccc1` (stereo not given), -7.23% (inactive). As for `Cc1ccc2nc(-c3ccc4c(c3)OCCO4)cn2c1`, the growth change, negative = inhibition is 3.5% (inactive). With `O=C1C2C(C(=O)N1Cc1ccco1)C1C=CC2C12CC2` (stereo not given), the growth change, negative = inhibition is 2.46% (inactive). Consider `CCOC(=O)c1cnc(-c2ccccc2)nc1N`, for which the growth change, negative = inhibition was -4.77% (inactive). Take `N#CC(c1ccc(Cl)cc1)c1ccc(Cl)nn1` (stereo not given): the growth change, negative = inhibition was -4.67% (inactive). Turning to `O=C(Nc1ncc([N+](=O)[O-])s1)c1cccc([N+](=O)[O-])c1`, the growth change, negative = inhibition is -9.89% (inactive).

Regarding `Clc1ccc2scc(CN3CCCC3)c2c1`, the growth change, negative = inhibition was -1.16% (inactive). `COC(=O)c1ccc(OC(=O)c2ccco2)cc1`: the growth change, negative = inhibition was -12.9% (inactive). As for `Clc1cccc(CNCCCSc2ncccn2)c1`, the figure is -7.39% (inactive); as for `COC(=O)c1ccc(/C=C(\C#N)c2ccccn2)cc1`, 9.37% (inactive); as for `O=C(/C=C/c1cccs1)c1cc(Cl)ccc1O`, 18.9% (inactive).

Take `COc1ccc(CNCc2cccc(Cl)c2)cc1`: the growth change, negative = inhibition was 4.12% (inactive). As for `CSc1nnc(-c2ccc([N+](=O)[O-])cc2)o1`, the figure is -9.96% (inactive); as for `CCOC(=O)/C=C(\C)Sc1cc(=O)oc2ccccc12`, 19.4% (inactive). As for `Cc1cc(S(=O)(=O)NCC2CC2)c(Cl)cc1Cl`, the figure is 9.74% (inactive); as for `N#CC(c1ccccc1)c1cccc(Cl)n1` (stereo not given), -11.7% (inactive). In the case of `O=C1N[C@@H](Cc2ccccc2)[C@@H](c2ccco2)O1`, the growth change, negative = inhibition was 16.2% (inactive). On to `CCOC(=O)N1CCN(c2ccc(Cl)cc2)CC1`, for which the growth change, negative = inhibition was -0.021% (inactive). For the compound `Cc1ccc(S(=O)c2ccc(C)cc2)cc1`, the growth change, negative = inhibition was 0.078% (inactive). Regarding `CCCNS(=O)(=O)c1ccc(OC)c(Cl)c1Cl`, the growth change, negative = inhibition is -7.21% (inactive). On to `Cc1cc(NC(=O)c2cc([N+](=O)[O-])ccc2Cl)no1`, for which the growth change, negative = inhibition is 24.8% (inactive).

(Values after PubChem BioAssay AID602389 (Broad Institute, 2012).)
